Data reported in patent publication US5985541A, “Peptide capable of being recognized by antibodies recognizing the C33 antigen of hepatitis C virus” (Bio Merieux, priority 1995, dated 1999).
Where no end group is shown, it is not given here.

What was measured:
Assay type in all cases: binding
anti-C33 antibodies = experiment: Spotscan point substitution tests on the Lys-Phe-Ser-Ser-Arg-Leu-Gly-Ala peptide; settings: point or double substitution of amino acids
Method: In order to determine the degree to which the nature of the various amino acids constituting the Lys-Phe-Ser-Ser-Arg-Leu-Gly-Ala peptide can vary without reducing the antigenic properties of said peptide with respect to anti-C33 antibodies, point substitution tests were performed.
The peptides were synthesized by the method described in the previous example, known as "Spotscan", substituting each amino acid on the peptide at a given position by the other nineteen. These peptides were then tested as described above. The size of each residue can thus be examined and the peptide grouping the best amino acids in each position can then be synthesized.

[1] = system: anti-C33 70-13 or 12A1H2 monoclonal antibodies; experiment: Spotscan immunoreactivity of overlapping octapeptides with anti-C33 monoclonal antibodies; settings: monoclonal antibodies 100 nM; β-galactosidase anti-mouse conjugate 1/200; estimated qualitatively
Method: The synthesis was conducted on an activated cellulose membrane according to the technique developed by Berg et al. (1989, J. Ann. Chem. Soc., 111, 8024-8026) and available from Cambridge Research Biochemicals (trade name Spotscan). This technique allows simultaneous synthesis of a large number of peptides. The escerified amino acids used in the synthesis have an α-amino group protected by an FMOC group (Nova Biochem) and side groups protected by protective groups such as, for example, trityl, t-butyl ester, or t-butyl ether. The esterified amino acids are dissolved in N-methylpyrrolidone (NMP) at the concentration of […] and 0.9 μl are deposited at the attachment sites of bromphenol blue. After 15 minutes incubation, amino acids are deposited once again, followed by a further incubation of 15 minutes. If the coupling between the two amino acids is done correctly, a color change is observed (transition from blue to yellow-green). After three washings in DMF, an acetylation step is performed by acetic anhydride. Then the terminal amino groups of the peptides undergoing synthesis are deprotected by piperidine in a 20% solution in DMF. The deposition sites are re-stained by a 1% bromophenol blue solution in DMF, washed three times with methanol, and dried. This sequence of operations constitutes one amino acid addition cycle, and this cycle is repeated until synthesis is complete. When all the amino acids have been added, the NH2 terminal group of the last amino acid is deprotected by piperidine in a 20% solution in DMF and acetylated with acetic anhydride. The protective groups of the side chain are removed by a mixture of dichloromethane/trifluoroacetic acid/triisobutylsilane (5 ml/5 ml/250 μl). The immunoreactivity of the peptides thus synthesized can then be tested, for example, by ELISA.
After synthesis of the various octapeptides, the cellulose membrane is rinsed with methanol, washed in TBS (0.1 M Tris, pH 7.2) then incubated overnight at room temperature in saturation buffer (available from Cambridge Research Biochemicals). After several washings with TBS-T (0.1 M Tris, pH 7.2-0.05% Tween 20), the membrane is placed in contact with a solution of anti-C33 70-13 or 12A1H2 monoclonal antibodies (100 nM), and incubated for four hours at room temperature. After three washings with TBS-T, the anti-mouse-immunoglobulin conjugate labeled with β-galactosidase (available from Cambridge Research Biochemicals) is added to a 1/200 dilution and these materials are incubated for two hours at room temperature. After several washings of the membrane with 0.05% TBS-Tween and PBS, the immunoreactivity at the various spots is developed by adding a solution of substrate (5-bromo-4-chloro-3-indoyl-β-D-galactopyranoside in PBS containing magnesium chloride and potassium ferricyanide) and incubating for ten to forty minutes. The color of the spots is estimated qualitatively on a numerical scale from 0 to 5.

[2] = system: mixture of human sera from patients infected by HCV (anti-C33 antibodies); experiment: Spotscan immunoreactivity of overlapping octapeptides with mixture of human sera; settings: 1/50 dilution of human sera mixture; anti-human-immunoglobulin conjugate 1/200

Row | Sequence | response compared with the Lys-Phe-Ser-Ser-Arg-Leu-Gly-Ala peptide (anti-C33 antibodies) | color of the spots (immunoreactivity) [1] | color of the spots (immunoreactivity) [2]
1 | KHSSYLGA [SEQ ID NO: 37] | advantageously |  | 
2 | RLGAAGAE |  | disappears completely | 
3 | DGAKFSSR |  | first color | 
4 | FSSRLGAA |  | maximum | maximum color
5 | KFSSPLGA [SEQ ID NO: 33] | better response |  | 
6 | KFSSYLGA [SEQ ID NO: 34] | better response |  | 
7 | KASSYLGA [SEQ ID NO: 36] | advantageously |  | 
8 | SRLGAAGA |  | very slight coloration | 
9 | KFSSRLGA |  | maximum | 
10 | KFSSGLGA [SEQ ID NO: 32] | better response |  | 
11 | KYSSRLGA [SEQ ID NO: 35] | equivalent response |  | 
